One assay concerns cardiac performance. In words: SPECT-CT of cardiac performance after severe hemorrhage. The note with it: FIG. 46. Format: in vivo, rat. Here is the method: This was measured by SPECT-CT (single photon emission computed tomography-computed tomography) which enables the measurement of the volume of blood forced from the heart visualized through 3-D, real-time imaging (FIG. 46).

Another assay has as its system Male SD rats. As to the kind of experiment: Survival and blood pressure after trauma-hemorrhage with 60% blood loss and no fluid resuscitation. The class given is in vivo, rat. The protocol:
16 rats were subjected to 60% removal of blood volume, using the same protocol found in Example 5.
Furthermore, crystalloid fluid resuscitation was administered following an initial 3-hour interval after the trauma and major blood loss, and rats were followed for 7 days. It has been observed that rats which survive for the initial 3 hours uniformly go on to survive for prolonged period of time and were then sacrificed. The survival rate is 68% for estrogen-treated rats, while all untreated control rats have died within the initial 3-hour interval (see FIG. 21).
(§1) Although E2 administration after trauma-hemorrhage (T-H) and fluid resuscitation produces salutary effects on organ functions, it was not known if E2 has any beneficial effects after major blood loss in the absence of fluid resuscitation. Male SD rats ˜250 g) underwent T-H (tissue trauma, BP 40 mmHg in 10 min and maintained at that BP by further blood withdrawal until maximum bleed out (MBO, 60% of total blood volume) occurred (45:t5 min)). E2 i.v. (1 mg/Kg, 0.4 ml/Kg volume, i.e., 120 μL/300 g body weight) or vehicle (cyclodextrin, CD) was then infused. No additional fluid was given for 3 hours. If rats survived, they received Ringer's lactate, 4× the MBO volume. A custom-fabricated 31p coil was placed on the surface of the rat's liver after laparotomy in another group, and spectra acquired using 4.7T NMR spectroscopy via a 31p coil in real time before and during hemorrhagic shock. Shock increased phosphomonoester and Pi with a concomitant decrease in β-ATP in both groups.

The subject of a further assay is liver ATP and pH. In words: 31P NMR spectroscopy of liver ATP and intracellular pH during hemorrhagic shock. Format: in vivo, rat. Particulars: FIG. 23; vs cyclodextrin control; listed as E2. The protocol:
Imaging and nuclear magnetic resonance studies were conducted to evaluate the effects of E2 on preservation of adenosine triphosphate (ATP) and pH levels in the liver.
The traumatic injury can involve a reduction in cellular ATP levels as compared to control ATP levels. By “control” is meant levels as measured before the traumatic injury, or levels that are considered in the “normal” range for the subject. Imaging and nuclear magnetic resonance studies have also been conducted to evaluate the effects of E2 on preservation of adenosine triphosphate (ATP) and pH levels in the liver.
as §1, with “A custom-fabricated 31p coil was placed on the surface of the rat's liver after laparotomy in another group, and spectra acquired using 4.7T NMR spectroscopy via a 31p coil in real time before and during hemorrhagic shock. Shock increased phosphomonoester and Pi with a concomitant decrease in β-ATP in both groups.” left out

The test system of another assay is Splenocytes. In words: Splenocyte proliferation and cytokine release after trauma-hemorrhage (ex vivo, Con A). The class given is in vivo, mouse. Here is the method:
Experimental groups. Ovariectomy was performed in female CBA/J mice 2 wk before trauma-hemorrhage using two dorsolateral incisions. […] Two weeks after ovariectomy, the animals were divided into four groups. Groups 1 and 2 consisted of sham-operated ovariectomized females, which were neither hemorrhaged nor resuscitated. Animals in groups 3 and 4 consisted of ovariectomized females, which were subjected to the trauma-hemorrhage procedure. Immediately before initiation of fluid resuscitation, animals in groups 1 and 3 received a subcutaneous injection of vehicle ([…] corn oil), and animals in groups 2 and 4 were treated with E2 ([…]/25 g body wt dissolved in […] corn oil). Each group consisted of 7-8 animals.
Trauma-hemorrhage procedure. Mice in the trauma-hemorrhage groups were lightly anesthetized with methoxyflurane (Metofane; Pitman Moore, Mundelein, Ill.) and restrained in a supine position, and a 2.5-cm midline laparotomy (i.e., soft tissue trauma induced) was performed, which was then closed aseptically in two layers using 6-0 Ethilon sutures (Ethicon, Somerville, N.J.). Both femoral arteries were then aseptically cannulated with polyethylene-10 tubing (Clay-Adams, Parsippany, N.J.) using a minimal dissection technique, and the animals were allowed to awaken. Blood pressure was constantly monitored by attaching one of the catheters to a blood pressure analyzer (Micro-Med, Louisville, Ky.). Lidocaine was applied to the incision sites to provide analgesia during the study period. Upon awakening, the animals were bled through the other catheter to a mean arterial blood pressure of 35±5 mmHg (mean arterial blood pressure prehemorrhage was 95±5 mmHg), which was maintained for 90 min. At the end of that procedure, the animals were resuscitated with four times the shed blood volume in the form of lactated Ringer solution. The catheters were then removed, the vessels were ligated, and the groin incisions were closed. Sham-operated animals underwent the same surgical procedure, which included ligation of both femoral arteries, but neither hemorrhage nor fluid resuscitation was carried out. There was no mortality observed in this model of trauma-hemorrhage.
Preparation of splenocyte culture. At 24 h after sham operation or trauma-hemorrhage and resuscitation, the spleens were removed aseptically and placed in separate petri dishes containing 4° C. phosphate-buffered saline (PBS) solution. Splenocytes were isolated as previously described in detail (Zellweger 1995). Briefly, the organs were gently ground between frosted microscope slides to produce a single cell suspension. This suspension was centrifuged at 300 g for 15 min. After resuspension, the erythrocytes were lysed hypotonically, and the remaining cells were washed with PBS by centrifugation (300 g, 15 min). Viability was tested using trypan blue exclusion and found to be ˜95% regardless of the group assessed. […] The ability of the splenocyte cultures to produce cytokines in response to a mitogenic challenge was assessed by incubation for 48 h (at 37° C., 5% CO2, and 90% humidity) in the presence of […] concanavalin A (Con A; Pharmacia/LKB Biotech, Piscataway, N.J.). […]
Splenocyte proliferation. […] The cells' ability to proliferate in response to mitogenic stimulation with 0 (negative control) or […] Con A was measured by [^3H]thymidine incorporation technique as previously de scribed (Stephan 1987). […]

Where [1] appears, read: 24 h after trauma-hemorrhage, Con A 48 h.

The structures appear in SMILES notation. Entries after “also recorded” stand apart in the source; their conditions may differ.

`C[C@]12CC[C@@H]3c4ccc(O)cc4CC[C@H]3[C@@H]1CC[C@@H]2O` [17β-estradiol]: in the assay on cardiac performance, the “cardiac performance as ejection fraction (SPECT-CT)” value was “substantially enhance cardiac performance as ejection fraction”. For the same compound, the “3-hour survival rates without fluid resuscitation” value in the assay on Male SD rats (E2 i.v. 1 mg/Kg, 0.4 ml/Kg at MBO (60% of total blood volume), vehicle cyclodextrin) is listed as “markedly improves 3-hour survival rates”. For the same compound, in the assay on Male SD rats (Ringer's lactate 4x MBO volume after 3 hours), the “long-term survival after resuscitation” value is recorded as “increases long-term survival after resuscitation”. Moreover, in the assay with liver ATP and pH, the “intracellular pH in liver” value was “maintenance of pH near neutral; also recorded: pH remains near neutral”. Moreover, in the assay on Splenocytes (setting [1]), the “splenocyte IFN-γ release” value is “no depression of IFN-γ production was observed”, the “splenocyte IL-2 production” value is recorded as “restored IL-2 productive capacity” and the “splenocyte IL-3 release” value was “significantly improved splenocyte IL-3 release capacity”. Also, the splenocyte proliferative capacity result in the assay on Splenocytes (24 h after trauma-hemorrhage, Con A, [3H]thymidine) is given as “no depression of splenocyte proliferative capacity was observed”. Also, the “splenocyte IL-10 production” value in the assay with Splenocytes (after trauma-hemorrhage compared with E2-treated sham-operated animals) is “significantly reduced IL-10 production”.

For the origin of these results see patent US9359451B2, “Methods and compositions for treating trauma-hemorrhage using estrogen and derivatives thereof” (THE UAB RESEARCH FOUNDATION, priority 2012, dated 2016).
